How the values were obtained:
[1] = xn = mol fraction of the nth substance listed; details: 101 kPa, Liquid; for speed of sound: Frequency=3 MHz, Sing-around technique in a fixed-path interferometer; for mass density: Vibrating tube method
[2] = 101 kPa, Liquid; for speed of sound: Frequency=3 MHz, Sing-around technique in a fixed-path interferometer; for mass density: Vibrating tube method
[3] = refractive index (Na D-line) (dimensionless); details: 298.15 K; 101.33 kPa; Liquid; Standard Abbe refractometry

CCCCO [butan-1-ol] + Cc1ccccc1
[1]
Details	mass density, 298.15 K [kg/m3]	mass density, 308.15 K [kg/m3]	mass density, 318.15 K [kg/m3]	mass density, 328.15 K [kg/m3]	speed of sound, 298.15 K [m/s]	speed of sound, 308.15 K [m/s]	speed of sound, 318.15 K [m/s]	speed of sound, 328.15 K [m/s]
x2 = 0.2008	818.72	810.48	802.18	793.77	1248	1212.2	1176.5	1141.2
x2 = 0.4064	830.53	821.82	813.05	804.18	1255.5	1217.6	1180.1	1143
x2 = 0.5993	840.92	831.87	822.79	813.62	1263.8	1224.6	1185.7	1147.5
x2 = 0.7995	851.36	842.08	832.78	823.42	1277.3	1237.1	1197.3	1158.2

COC(C)(C)C [2-methoxy-2-methylpropane]
[2]
Details	mass density [kg/m3]	speed of sound [m/s]
298.15 K	735.21	1036.3
308.15 K	724.64	990.46
318.15 K	714	944.87
328.15 K	703.29	–

Details	refractive index
[3]	1.36648

Cc1ccccc1 [toluene]
[2]
Details	mass density [kg/m3]	speed of sound [m/s]
298.15 K	862.18	1305.3
308.15 K	852.87	1262.5
318.15 K	843.58	1220.2
328.15 K	834.29	1178.5

Details	refractive index
[3]	1.49393

CCCCO [butan-1-ol]
[2]
Details	mass density [kg/m3]	speed of sound [m/s]
298.15 K	805.73	1240
308.15 K	798.07	1206.6
318.15 K	790.37	1173.4
328.15 K	782.58	1140.4

Details	refractive index
[3]	1.39733

CCCCO [butan-1-ol] + COC(C)(C)C
[1], x2 = 0
Details	mass density [kg/m3]	speed of sound [m/s]
298.15 K	805.73	1240
308.15 K	798.07	1206.6
318.15 K	790.37	1173.4
328.15 K	782.58	1140.4
